Experimental data from patent US20170258871A1, “COMBINED USE OF A TRKA INHIBITOR AND AN EPHA2 INHIBITOR FOR USING IN THE TREATMENT OF SOLID CANCERS, AND METHOD FOR THE PROGNOSIS OF SURVIVAL OF A PATIENT WHO HAS A SOLID CANCER” (UNIVERSITE DES SCIENCES ET TECHNOLOGIES DE LILLE, priority 2014, published 2017).

Legend:
DU145 cells = assay: In vitro invasion test (Boyden chamber), DU145; assay type: cell-based
Protocol: (§1) (0.5 nM) for a period of 20 hours. The untreated cells represent the control and determine a base invasion of 100%.
FIG. 3: A study of the involvement of EphA2 on the pro-invasive effects of proNGF. The invasion test is carried out on cells MDA-MB-231 (A), DU145 (B) and PC3 (C) transfected with a siRNA against EphA2 (siEphA2), TrkA (siTrkA) or a random siRNA (siCTRL). The transfected siCTRL cells are treated to provide a control and determine a base invasion of 100% (white column). […] The efficacy of the siRNA is measured by the western blot method through the use of specific antibodies against TrkA, EphA2, and actin (load control).
The Boyden Chambers (Transwell®; BD Biosciences; France) were recovered from a biological matrix (type 1 collagen from rats diluted to 400 μg·mL-1 in EMEM-0.1% FCS medium; Millipore). The cells were then seeded with 100,000 cells/well on PET membranes (polyethylene terephtalate; dia.: 10.5 mm; porosity: 8 μm) of Boyden Chambers and held in an EMEM-0.1% FCS medium. […] (0.5 nM) in the lower part. […] The number of cells was estimated after staining with Hoechst 33 258 (1 mM; 30 min; 20° C.) by counting the nuclei thereof using fluorescence microscopy on a total of 5 five randomly chosen fields (lens 10×; λ-excitation: 345 nm; λ-emission: 478 nm; Eclipse Ti) using the ImageJ software. […]

CAL33 cells = assay: In vitro invasion test (Boyden chamber), CAL 33; assay type: cell-based; conditions: NGF 16 nM or proNGF N.C. 0.5 nM, untreated cells = 100%
Protocol: as §1
(§2) The Boyden Chambers (Transwell®; BD Biosciences; France) were recovered from a biological matrix (type 1 collagen from rats diluted to 400 μg·mL-1 in EMEM-0.1% FCS medium; Millipore). The cells were then seeded with 100,000 cells/well on PET membranes (polyethylene terephtalate; dia.: 10.5 mm; porosity: 8 μm) of Boyden Chambers and held in an EMEM-0.1% FCS medium. […] (0.5 nM) in the lower part. After 20 hours of culture, they were washed twice with PBS 1× and fixed (ice cold methanol; 15 min; −20° C.). The non-invasive cells (upper face of the Transwell®) were eliminated by scraping. The number of cells was estimated after staining with Hoechst 33 258 (1 mM; 30 min; 20° C.) by counting the nuclei thereof using fluorescence microscopy on a total of 5 five randomly chosen fields (lens 10×; λ-excitation: 345 nm; λ-emission: 478 nm; Eclipse Ti) using the ImageJ software. Each experiment was performed in triplicate. Statistical analysis of the results was performed by analysis of variance ANOVA (Bonferroni post-hoc test).

SQ20B cells = assay: In vitro invasion test (Boyden chamber), SQ20B; assay type: cell-based; conditions: NGF 16 nM or proNGF N.C. 0.5 nM, untreated cells = 100%
Protocol: as §1, §2

[1] = target: T1, TrkA/sortilin/EphA2 complex (Homo sapiens, UniProt Q99523); assay: Immunoprecipitation of the TrkA/sortilin/EphA2 complex in cells MDA-MB-231 HA-TrkA; assay type: cell-based; conditions: MDA-MB-231 HA-TrkA
T1 construct: expressed in transfected cells
T1 sequence (Q99523 78-831): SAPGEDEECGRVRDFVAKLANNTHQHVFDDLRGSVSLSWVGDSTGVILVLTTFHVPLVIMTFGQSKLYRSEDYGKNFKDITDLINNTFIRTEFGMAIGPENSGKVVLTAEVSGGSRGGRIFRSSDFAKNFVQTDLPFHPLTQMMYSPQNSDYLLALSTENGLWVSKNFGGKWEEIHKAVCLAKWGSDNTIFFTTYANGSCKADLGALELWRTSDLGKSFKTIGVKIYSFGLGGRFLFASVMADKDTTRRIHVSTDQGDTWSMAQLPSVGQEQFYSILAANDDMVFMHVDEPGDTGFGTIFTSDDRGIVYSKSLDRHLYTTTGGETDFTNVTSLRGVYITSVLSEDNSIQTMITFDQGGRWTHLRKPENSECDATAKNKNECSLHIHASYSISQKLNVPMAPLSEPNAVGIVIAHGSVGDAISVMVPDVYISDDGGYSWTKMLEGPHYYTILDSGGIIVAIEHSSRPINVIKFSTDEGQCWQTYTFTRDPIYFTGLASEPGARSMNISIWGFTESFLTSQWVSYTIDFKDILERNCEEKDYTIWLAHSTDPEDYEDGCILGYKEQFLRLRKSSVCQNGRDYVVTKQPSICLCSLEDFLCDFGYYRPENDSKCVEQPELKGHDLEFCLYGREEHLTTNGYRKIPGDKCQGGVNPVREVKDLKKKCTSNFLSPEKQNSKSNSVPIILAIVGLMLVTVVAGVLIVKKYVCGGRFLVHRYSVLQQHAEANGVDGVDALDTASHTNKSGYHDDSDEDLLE
Protocol: A. Cells MDA-MB-231 HA-TrkA were transfected with siTrkA and then treated with proNGF N.C.
D. Cells MDA-MB-231 HA-TrkA were transfected with siEphA2 and then treated with proNGF N.C. (30 min).
The sequences of siRNA used against EphA2 (siEphA2) at 100 pmol for each transfection, and against TrkA (pool of 3 siTrkA 1, 2 and 3) are given in table 1. The transfections of siRNA are produced by means of [sequence]in™ according to the manufacturers instructions (POL409-10, Polyplus transfection, Ozyme, Saint Quentin en Yvelines, France).
The beads (Protein G-agarose, Millipore) were washed twice (12,000 g; 1 min; 4° C.) and recovered in PBS IX (at 50% (v/v)). The protein samples (1 mg) were pre-clarified (1 h; 4° C.; on a wheel (10 rpm)) with 100 μl of beads and 5 μg of isotypical antibodies (mouse IgG2b), centrifuged (12,000 g; 2 min; 4° C.), then the supernatant was incubated (2 h; 4° C.; on a wheel (10 rpm)) with 5 μg of α-HA 12CA5 antibody (Roche). The beads (100 μL at 50% in PBS IX) were added directly to the antibody/protein complex then incubated (2 h; 4° C.; on a wheel (10 rpm)). The antibody/antigen/bead complexes were then centrifuged (12,000 g; 5 min; 4° C.), washed three times (lysis buffer; 4° C.), then disassociated by addition of Laemmli 2× buffer (25 mM Tris-HCl, 0.8% SDS, 4% glycerol, 1% β-mercaptoethanol, pH 6.8) (7 min; 100° C.). […]

[2] = test system: MDA-MB-231 HA-TrkA tumours; assay: Xenograft of MDA-MB-231 HA-TrkA in SCID mice, survival (Experiment 2); assay type: in vivo; conditions: 5 injections (D14-D26), siRNA 7.5 microg/mouse close to the tumour; control 40 days; log-rank P=0.0022
Protocol: FIG. 9: A study of the inhibition of TrkA and EphA2 on tumour development in vivo. […] The experiments were stopped 31 days after the first injection of the treatment for ethical considerations after the death of the control mice. A) The tumour volumes were evaluated by measuring the length (;) and the width (w) and then calculating the volume using the formula π/6×l×W×(l+w)/2; the Mann and Whitney test was carried out between the control group and CEP-701 (a), between the control groups and siEphA2 (b), between the control groups and CEP-701+siEphA2 (c), and between the groups siEphA2 and CEP-701+siEphA2 (d)*, P<0.05; **, P<0.01; ns: not significant. B) Study of the inhibition of the expression of receptors by siRNA on the overall survival of SCID mice. The tumours were developed without any intervention for 14 days and were then subjected to 5 injections (D14, DI7, D20, D23, D26) of SiTrkA (7.5 microg/mouse), siEphA2 (7.5 microg/mouse), siTrkA (7.5 microg/mouse) and siEphA2 (7.5 microg/mouse). […] The tumour volumes were evaluated by measuring the length (l) and width (w) and then calculating the volume using the formula π/6×l×W×(l+w)/2. […] Significance was measured using the log-rank test (P=0.0022). […]
Experiment 2: The mice used were six-week old SCID females. […] The tumour volume was measured according to the following formula: π/6×length×width×(width+length)/2. […]

Substance | cell invasion under growth factor (DU145 cells; NGF 16 nM or proNGF N.C. 0.5 nM, untreated cells = 100%) | cell invasion under growth factor (CAL33 cells) | cell invasion under growth factor (SQ20B cells) | association of TrkA, sortilin and EphA2 (co-immunoprecipitation) under ligand treatment ([1]; 0.5 nM proNGF N.C. or 16 nM NGF, 5 and 30 min) | invasion induced by proNGF in siRNA-transfected cells (DU145 cells; siRNA transfection vs siCTRL, proNGF) | formation of the TrkA/sortilin/EphA2 complex under proNGF with invalidation of a receptor ([1]; proNGF N.C., siRNA transfection or 1 μM neurotensin) | median survival [2] [days]
NGF: Nerve Growth Factor; recombinant human β NGF supplied by Scil Proteins | increased cell invasion | increased cell invasion | induced | induce a delayed association of TrkA and sortilin but does not induce bonding with EphA2 |  |  | 
siEphA2: siRNA against EphA2, GCAAGGAAGUGGUACUGCUGGACUU (SEQ ID NO: 1) (listed as RNA, chemistry not given here) |  |  |  |  | abolished the invasion induced by proNGF | no bond was observed between EphA2 and TrkA | 49
